# Results: patent publication US9212182B2, “Bicyclic sulfonamide compounds as sodium channel inhibitors” (AMGEN INC., priority 2013, dated 2015)
# Like-named read-outs stand apart in the source and are kept apart here.
# Molecular target: Nav 1.7 (Homo sapiens (Human), UniProt Q15858)
# Assay: in-vitro Nav 1.7 PX (IC50)
# Format: cell-based
# Nav 1.7, sequence (Q15858 whole entry): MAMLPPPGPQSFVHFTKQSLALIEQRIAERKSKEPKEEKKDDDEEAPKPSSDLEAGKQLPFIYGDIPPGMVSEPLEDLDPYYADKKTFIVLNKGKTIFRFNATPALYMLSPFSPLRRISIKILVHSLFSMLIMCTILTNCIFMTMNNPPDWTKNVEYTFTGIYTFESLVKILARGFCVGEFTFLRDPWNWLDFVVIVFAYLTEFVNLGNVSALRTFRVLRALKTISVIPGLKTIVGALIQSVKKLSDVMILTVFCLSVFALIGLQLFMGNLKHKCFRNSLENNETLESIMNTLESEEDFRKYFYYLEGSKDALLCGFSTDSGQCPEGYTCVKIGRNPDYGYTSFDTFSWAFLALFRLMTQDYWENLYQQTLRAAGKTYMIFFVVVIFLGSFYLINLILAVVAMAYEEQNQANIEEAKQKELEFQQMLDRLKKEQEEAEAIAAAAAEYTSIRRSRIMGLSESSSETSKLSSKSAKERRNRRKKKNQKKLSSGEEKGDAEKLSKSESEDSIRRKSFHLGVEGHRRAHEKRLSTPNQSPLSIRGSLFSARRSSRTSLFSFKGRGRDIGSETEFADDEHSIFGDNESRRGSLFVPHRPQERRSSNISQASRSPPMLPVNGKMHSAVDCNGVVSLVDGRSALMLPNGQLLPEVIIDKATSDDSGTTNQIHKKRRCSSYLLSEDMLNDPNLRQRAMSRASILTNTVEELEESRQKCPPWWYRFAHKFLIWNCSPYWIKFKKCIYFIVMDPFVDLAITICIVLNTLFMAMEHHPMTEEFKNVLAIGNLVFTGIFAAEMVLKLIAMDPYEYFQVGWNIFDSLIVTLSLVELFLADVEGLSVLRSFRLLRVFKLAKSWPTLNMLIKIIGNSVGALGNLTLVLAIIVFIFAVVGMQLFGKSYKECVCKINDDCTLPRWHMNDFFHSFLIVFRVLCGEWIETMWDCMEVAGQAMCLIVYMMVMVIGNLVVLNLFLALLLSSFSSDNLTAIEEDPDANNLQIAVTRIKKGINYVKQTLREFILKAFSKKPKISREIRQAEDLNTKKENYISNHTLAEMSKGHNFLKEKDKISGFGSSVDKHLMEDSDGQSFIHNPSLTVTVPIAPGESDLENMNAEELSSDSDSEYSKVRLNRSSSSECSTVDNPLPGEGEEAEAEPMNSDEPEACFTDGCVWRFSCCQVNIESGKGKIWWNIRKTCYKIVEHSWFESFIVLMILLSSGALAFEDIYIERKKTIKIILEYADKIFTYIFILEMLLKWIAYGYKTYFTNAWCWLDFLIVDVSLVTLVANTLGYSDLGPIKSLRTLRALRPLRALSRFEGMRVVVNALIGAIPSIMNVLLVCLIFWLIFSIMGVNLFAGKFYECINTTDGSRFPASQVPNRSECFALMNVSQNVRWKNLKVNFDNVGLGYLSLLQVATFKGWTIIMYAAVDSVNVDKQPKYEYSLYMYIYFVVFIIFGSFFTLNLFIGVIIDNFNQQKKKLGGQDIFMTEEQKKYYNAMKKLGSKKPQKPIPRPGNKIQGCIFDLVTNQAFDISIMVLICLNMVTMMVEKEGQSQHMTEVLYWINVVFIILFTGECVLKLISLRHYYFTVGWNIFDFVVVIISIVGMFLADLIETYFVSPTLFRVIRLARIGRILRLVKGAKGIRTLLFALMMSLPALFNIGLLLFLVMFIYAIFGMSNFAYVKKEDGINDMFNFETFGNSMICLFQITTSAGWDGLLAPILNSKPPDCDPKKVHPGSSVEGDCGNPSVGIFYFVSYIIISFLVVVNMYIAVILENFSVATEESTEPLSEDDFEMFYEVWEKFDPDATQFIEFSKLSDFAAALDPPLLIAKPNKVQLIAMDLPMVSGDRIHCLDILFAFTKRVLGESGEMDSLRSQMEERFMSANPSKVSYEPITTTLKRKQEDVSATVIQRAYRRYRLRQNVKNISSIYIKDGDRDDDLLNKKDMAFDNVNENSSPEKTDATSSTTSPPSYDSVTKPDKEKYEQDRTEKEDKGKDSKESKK
SMILES,IC50 [nM],IC50 (in-vitro PatchXpress (PX)) [nM]
"COc1ccc(-c2cccc(C(F)(F)F)c2)cc1-n1c(=O)ccc2cc(S(=O)(=O)Nc3ccon3)ccc21 (atropisomer, axis not shown; (P)) [Example 381, (P)—N-3-isoxazolyl-1-(4-methoxy-3′-(trifluoromethyl)-3-biphenylyl)-2-oxo-1,2-dihydro-6-quinolinesulfonamide]",15,–
"CCOc1cc(-c2cccc(F)c2)c(F)cc1-n1c(=O)ccc2cc(S(=O)(=O)Nc3ccon3)ccc21 (atropisomer, axis not shown; (P)) [Example 388, (P)-1-(5-ethoxy-2,3′-difluoro-[1,1′-biphenyl]-4-yl)-N-(isoxazol-3-yl)-2-oxo-1,2-dihydroquinoline-6-sulfonamide]",48,–
"Cc1cc(-c2cccc(F)c2)c(F)cc1-n1c(=O)ccc2cc(S(=O)(=O)Nc3ccon3)ccc21 (atropisomer, axis not shown; (P)) [Example 390, (P)-1-(2,3′-difluoro-5-methyl-[1,1′-biphenyl]-4-yl)-N-(isoxazol-3-yl)-2-oxo-1,2-dihydroquinoline-6-sulfonamide]",100,–
"COc1cc(-c2cncc(Cl)c2)c(F)cc1-n1c(=O)ccc2cc(S(=O)(=O)Nc3ccon3)ccc21 (atropisomer, axis not shown; (P)) [Example 408, (P)-1-(4-(5-chloro-3-pyridinyl)-5-fluoro-2-methoxyphenyl)-N-3-isoxazolyl-2-oxo-1,2-dihydro-6-quinolinesulfonamide]",–,8040
"COc1cc(-c2ccc(Cl)c(C)c2)c(F)cc1-n1c(=O)c(OC)cc2cc(S(=O)(=O)Nc3ccon3)ccc21 (atropisomer, axis not shown; (P)) [Example 414, (P)-1-(4′-chloro-2-fluoro-5-methoxy-3′-methyl-[1,1′-biphenyl]-4-yl)-N-(isoxazol-3-yl)-3-methoxy-2-oxo-1,2-dihydroquinoline-6-sulfonamide]",13,–
"COc1cc(Br)c(C)cc1-n1c(=O)ccc2cc(S(=O)(=O)Nc3ccon3)ccc21 (atropisomer, axis not shown; (P)) [Example 415, (P)-1-(4-bromo-2-methoxy-5-methylphenyl)-N-3-isoxazolyl-2-oxo-1,2-dihydro-6-quinolinesulfonamide]",269,–
"COc1cc(-c2cc(F)cc(Cl)c2)c(C)cc1-n1c(=O)ccc2cc(S(=O)(=O)Nc3ccon3)ccc21 (atropisomer, axis not shown; (P)) [Example 417, (P)-1-(3′-chloro-5′-fluoro-5-methoxy-2-methyl-4-biphenylyl)-N-3-isoxazolyl-2-oxo-1,2-dihydro-6-quinolinesulfonamide]",9,–
"COc1cc(-c2ccc(Cl)c(C)c2)c(C)cc1-n1c(=O)ccc2cc(S(=O)(=O)Nc3ccon3)ccc21 (atropisomer, axis not shown; (P)) [Example 421, (P)-1-(4′-chloro-5-methoxy-2,3′-dimethyl-4-biphenylyl)-N-3-isoxazolyl-2-oxo-1,2-dihydro-6-quinolinesulfonamide]",16,–
"COc1cc(-c2cc(F)cnc2OC)c(C)cc1-n1c(=O)ccc2cc(S(=O)(=O)Nc3ccon3)ccc21 (atropisomer, axis not shown; (P)) [Example 426, (P)-1-(4-(5-fluoro-2-methoxy-3-pyridinyl)-2-methoxy-5-methylphenyl)-N-3-isoxazolyl-2-oxo-1,2-dihydro-6-quinolinesulfonamide]",63,–
"COc1cc(-c2cccc(F)c2)c(C)cc1-n1c(=O)ccc2cc(S(=O)(=O)Nc3ccon3)ccc21 (atropisomer, axis not shown; (P)) [Example 427, (P)-1-(3′-fluoro-5-methoxy-2-methyl-4-biphenylyl)-N-3-isoxazolyl-2-oxo-1,2-dihydro-6-quinolinesulfonamide]",25,–
"COc1cc(-c2cc(F)cc(Cl)c2)ccc1-n1c(=O)ccc2cc(S(=O)(=O)Nc3ccon3)ccc21 (atropisomer, axis not shown; (P)) [Example 430, (P)-1-(3′-chloro-5′-fluoro-3-methoxy-4-biphenylyl)-N-3-isoxazolyl-2-oxo-1,2-dihydro-6-quinolinesulfonamide]",12,–
"COc1cc(-c2ccc(Cl)c(C)c2)ccc1-n1c(=O)ccc2cc(S(=O)(=O)Nc3ccon3)ccc21 (atropisomer, axis not shown; (P)) [Example 432, (P)-1-(4′-chloro-3-methoxy-3′-methyl-4-biphenylyl)-N-3-isoxazolyl-2-oxo-1,2-dihydro-6-quinolinesulfonamide]",9,–
"COc1cc(-c2cc(F)cc(Cl)c2)c(C#N)cc1-n1c(=O)ccc2cc(S(=O)(=O)Nc3ccon3)ccc21 (atropisomer, axis not shown; (P)) [Example 433, (P)-1-(3′-chloro-2-cyano-5′-fluoro-5-methoxy-4-biphenylyl)-N-3-isoxazolyl-2-oxo-1,2-dihydro-6-quinolinesulfonamide]",10,–
"COc1cc(-c2cccc(Cl)c2)c(Cl)cc1-n1c(=O)ccc2cc(S(=O)(=O)Nc3ccon3)ccc21 (atropisomer, axis not shown; (P)) [Example 459, (P)-1-(2,3′-dichloro-5-methoxy-[1,1′-biphenyl]-4-yl)-N-(isoxazol-3-yl)-2-oxo-1,2-dihydroquinoline-6-sulfonamide]",12,–
"COc1cc(-c2ccc(Cl)c(C)c2)c(Cl)cc1-n1c(=O)ccc2cc(S(=O)(=O)Nc3ccon3)ccc21 (atropisomer, axis not shown; (P)) [Example 471, (P)-1-(2,4′-dichloro-5-methoxy-3′-methyl-[1,1′-biphenyl]-4-yl)-N-(isoxazol-3-yl)-2-oxo-1,2-dihydroquinoline-6-sulfonamide]",8,–
"COc1cc(Br)c(Cl)cc1-n1c(=O)ccc2cc(S(=O)(=O)Nc3ccon3)ccc21 (atropisomer, axis not shown; (P)) [Example 473, (P)-1-(4-bromo-5-chloro-2-methoxyphenyl)-N-(isoxazol-3-yl)-2-oxo-1,2-dihydroquinoline-6-sulfonamide]",178,–
"COc1cc(-c2cc(F)cc(Cl)c2)ccc1-n1c(=O)ccc2cc(S(=O)(=O)Nc3cccnn3)ccc21 (atropisomer, axis not shown; (P)) [Example 480, (P)-1-(3′-chloro-5′-fluoro-3-methoxy-4-biphenylyl)-2-oxo-N-3-pyridazinyl-1,2-dihydro-6-quinolinesulfonamide]",–,8
"COc1ccc(-c2cccc(F)c2)cc1-n1c(=O)ccc2cc(S(=O)(=O)Nc3ccon3)ccc21 (atropisomer, axis not shown; (P)) [Example 483, (P)-1-(3′-fluoro-4-methoxy-3-biphenylyl)-N-3-isoxazolyl-2-oxo-1,2-dihydro-6-quinolinesulfonamide]",54,–
"COc1cc(-c2cccc(C#N)c2)c(F)cc1-n1c(=O)ccc2cc(S(=O)(=O)Nc3ccon3)ccc21 (atropisomer, axis not shown; (P)) [Example 498, (P)-1-(3′-cyano-2-fluoro-5-methoxy-4-biphenylyl)-N-3-isoxazolyl-2-oxo-1,2-dihydro-6-quinolinesulfonamide]",–,34
"COc1cc(Cl)cc(-c2cc(OC)c(-n3c(=O)ccc4cc(S(=O)(=O)Nc5ccon5)ccc43)cc2F)c1 (atropisomer, axis not shown; (P)) [Example 501, (P)-1-(3′-chloro-2-fluoro-5,5′-dimethoxy-4-biphenylyl)-N-3-isoxazolyl-2-oxo-1,2-dihydro-6-quinolinesulfonamide]",–,4
"COc1cc(-c2ccc(Cl)c(F)c2)c(F)cc1-n1c(=O)ccc2cc(S(=O)(=O)Nc3ccon3)ccc21 (atropisomer, axis not shown; (P)) [Example 503, (P)-1-(4′-chloro-2,3′-difluoro-5-methoxy-4-biphenylyl)-N-3-isoxazolyl-2-oxo-1,2-dihydro-6-quinolinesulfonamide]",–,1100
"COc1cc(-c2cc(C)cc(Cl)c2)c(F)cc1-n1c(=O)ccc2cc(S(=O)(=O)Nc3ccon3)ccc21 (atropisomer, axis not shown; (P)) [Example 506, (P)-1-(3′-chloro-2-fluoro-5-methoxy-5′-methyl-4-biphenylyl)-N-3-isoxazolyl-2-oxo-1,2-dihydro-6-quinolinesulfonamide]",–,8
"COc1cc(-c2ccc(Cl)c(C#N)c2)c(F)cc1-n1c(=O)ccc2cc(S(=O)(=O)Nc3ccon3)ccc21 (atropisomer, axis not shown; (P)) [Example 508, (P)-1-(4′-chloro-3′-cyano-2-fluoro-5-methoxy-4-biphenylyl)-N-3-isoxazolyl-2-oxo-1,2-dihydro-6-quinolinesulfonamide]",–,7
"COc1cc(-c2cc(F)cc(F)c2F)c(F)cc1-n1c(=O)ccc2cc(S(=O)(=O)Nc3ccon3)ccc21 (atropisomer, axis not shown; (P)) [Example 514, (P)—N-3-isoxazolyl-2-oxo-1-(2,2′,3′,5′-tetrafluoro-5-methoxy-4-biphenylyl)-1,2-dihydro-6-quinolinesulfonamide]",–,18
"COc1cc(-c2cc(F)c(F)cc2F)c(F)cc1-n1c(=O)ccc2cc(S(=O)(=O)Nc3ccon3)ccc21 (atropisomer, axis not shown; (P)) [Example 516, (P)—N-3-isoxazolyl-2-oxo-1-(2,2′,4′,5′-tetrafluoro-5-methoxy-4-biphenylyl)-1,2-dihydro-6-quinolinesulfonamide]",–,> 10000
"COc1cc(-c2cc(Cl)cc(C#N)c2)c(F)cc1-n1c(=O)ccc2cc(S(=O)(=O)Nc3ccon3)ccc21 (atropisomer, axis not shown; (P)) [Example 518, (P)-1-(3′-chloro-5′-cyano-2-fluoro-5-methoxy-4-biphenylyl)-N-3-isoxazolyl-2-oxo-1,2-dihydro-6-quinolinesulfonamide]",–,2000
"COc1cc(-c2ccc(C#N)c(Cl)c2)c(F)cc1-n1c(=O)ccc2cc(S(=O)(=O)Nc3ccon3)ccc21 (atropisomer, axis not shown; (P)) [Example 520, (P)-1-(3′-chloro-4′-cyano-2-fluoro-5-methoxy-4-biphenylyl)-N-3-isoxazolyl-2-oxo-1,2-dihydro-6-quinolinesulfonamide]",–,26
